Experiment [1] concerns transgenic SOD mice. Nature of the experiment: Effect of NAALADase inhibitor on onset of clinical disease, transgenic mice model of FALS. It counts as in vivo. The settings on record: for Disease onset for compound treated mice: 50 mg/kg, from one month old. The method, then:
The effect of NAALADase inhibitors on the onset of ALS was tested using the transgenic mice model of familial amyotrophic lateral sclerosis (FALS), which is detailed in Gurney, M., Annals of Neurology (1996) 39:147-157, and otherwise well known in the art. One month old transgenic SOD mice were treated with daily intraperitoneal injections of a vehicle (50 mM HEPES-buffered saline) or a NAALADase inhibitor (50 mg/kg 2-[[(2,3,4,5,6-pentafluorobenzyl)hydroxyphosphinyl]methyl]-pentanedioic acid (“Compound A” )). Clinical symptoms of the mice were monitored daily. The onset of clinical disease was scored by examining each mouse for its shaking of limbs when suspended in the air by its tail, cross spread of spinal reflexes, hindlimb paralysis, body weight and wheel running activity.

The target in experiment [2] is NAALADase (Rattus norvegicus, UniProt P70627). The settings on record: NAAG as substrate of NAALADase; cited from earlier work.

Residues, ends and D or L forms follow the SMILES beside them.

A word on the Km: it is the substrate concentration at which the rate is half of its maximum.

NAALADase, sequence (P70627 whole entry): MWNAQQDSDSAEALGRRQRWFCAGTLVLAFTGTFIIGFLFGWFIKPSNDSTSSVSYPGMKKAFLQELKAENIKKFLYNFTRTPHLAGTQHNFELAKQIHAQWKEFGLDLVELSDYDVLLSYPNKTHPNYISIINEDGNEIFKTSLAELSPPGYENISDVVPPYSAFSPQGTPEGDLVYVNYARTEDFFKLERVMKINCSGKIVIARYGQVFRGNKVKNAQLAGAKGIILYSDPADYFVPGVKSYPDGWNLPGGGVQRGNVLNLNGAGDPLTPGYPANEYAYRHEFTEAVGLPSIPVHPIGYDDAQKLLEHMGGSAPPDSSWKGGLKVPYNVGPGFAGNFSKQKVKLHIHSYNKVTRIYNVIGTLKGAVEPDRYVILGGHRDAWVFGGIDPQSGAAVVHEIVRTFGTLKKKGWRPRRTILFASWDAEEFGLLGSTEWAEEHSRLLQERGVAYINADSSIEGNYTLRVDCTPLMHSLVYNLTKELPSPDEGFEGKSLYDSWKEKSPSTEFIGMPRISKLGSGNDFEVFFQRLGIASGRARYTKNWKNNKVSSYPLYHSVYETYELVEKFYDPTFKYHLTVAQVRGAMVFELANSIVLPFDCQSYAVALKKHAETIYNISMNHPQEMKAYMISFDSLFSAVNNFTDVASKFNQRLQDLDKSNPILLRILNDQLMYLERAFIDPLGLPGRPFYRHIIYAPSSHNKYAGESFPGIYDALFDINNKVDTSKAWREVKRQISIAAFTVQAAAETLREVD

Turning to `O=C(O)CCC(CCCS)C(=O)O` (centres unmarked) [Compound B, 2-(3-sulfanylpropyl)pentanedioic acid], the “Difference in disease onset, compound treated vs vehicle treated mice” value in experiment [1] (Study 1) was 32; in experiment [1] (Study 2), 25. Further, the “Disease onset for compound treated mice” value in experiment [1] (Study 1, daily intraperitoneal injections) is 221 days of age; in experiment [1] (Study 2, daily intraperitoneal injections), 166 days of age.
Turning to `CC(=O)N[C@@H](CC(=O)O)C(=O)N[C@@H](CCC(=O)O)C(=O)O` [NAAG, N-acetyl-aspartyl-glutamate] (Ac-Asp-Glu-OH), in experiment [2], the Km was 0.54 µM.

Values taken from patent US20020013295A1, “Naaladase inhibitors for treating amyotrophic lateral sclerosis” (priority 2000, published 2002).
